Source: PMC12220853, “Natural aminosterols inhibit NMDA receptors with low nanomolar potency” (The Febs Journal, 2025)

Target: T1, N-methyl-D-aspartate receptor (NMDAR), native in hippocampal neurons (Rattus norvegicus, UniProt P35439+Q00959+Q00960)
T1 construct: gene Grin1; native heteromeric receptor in primary rat hippocampal neurons; with GluN2A / GluN2B (native mixture, mostly GluN1/2A/2B)
Assay: whole-cell patch clamp of NMDA-activated currents in primary rat hippocampal neurons ([…] NMDA, […] glycine)
Type: cell-based

T1 sequence (Q00959 23-1464, other chains not shown): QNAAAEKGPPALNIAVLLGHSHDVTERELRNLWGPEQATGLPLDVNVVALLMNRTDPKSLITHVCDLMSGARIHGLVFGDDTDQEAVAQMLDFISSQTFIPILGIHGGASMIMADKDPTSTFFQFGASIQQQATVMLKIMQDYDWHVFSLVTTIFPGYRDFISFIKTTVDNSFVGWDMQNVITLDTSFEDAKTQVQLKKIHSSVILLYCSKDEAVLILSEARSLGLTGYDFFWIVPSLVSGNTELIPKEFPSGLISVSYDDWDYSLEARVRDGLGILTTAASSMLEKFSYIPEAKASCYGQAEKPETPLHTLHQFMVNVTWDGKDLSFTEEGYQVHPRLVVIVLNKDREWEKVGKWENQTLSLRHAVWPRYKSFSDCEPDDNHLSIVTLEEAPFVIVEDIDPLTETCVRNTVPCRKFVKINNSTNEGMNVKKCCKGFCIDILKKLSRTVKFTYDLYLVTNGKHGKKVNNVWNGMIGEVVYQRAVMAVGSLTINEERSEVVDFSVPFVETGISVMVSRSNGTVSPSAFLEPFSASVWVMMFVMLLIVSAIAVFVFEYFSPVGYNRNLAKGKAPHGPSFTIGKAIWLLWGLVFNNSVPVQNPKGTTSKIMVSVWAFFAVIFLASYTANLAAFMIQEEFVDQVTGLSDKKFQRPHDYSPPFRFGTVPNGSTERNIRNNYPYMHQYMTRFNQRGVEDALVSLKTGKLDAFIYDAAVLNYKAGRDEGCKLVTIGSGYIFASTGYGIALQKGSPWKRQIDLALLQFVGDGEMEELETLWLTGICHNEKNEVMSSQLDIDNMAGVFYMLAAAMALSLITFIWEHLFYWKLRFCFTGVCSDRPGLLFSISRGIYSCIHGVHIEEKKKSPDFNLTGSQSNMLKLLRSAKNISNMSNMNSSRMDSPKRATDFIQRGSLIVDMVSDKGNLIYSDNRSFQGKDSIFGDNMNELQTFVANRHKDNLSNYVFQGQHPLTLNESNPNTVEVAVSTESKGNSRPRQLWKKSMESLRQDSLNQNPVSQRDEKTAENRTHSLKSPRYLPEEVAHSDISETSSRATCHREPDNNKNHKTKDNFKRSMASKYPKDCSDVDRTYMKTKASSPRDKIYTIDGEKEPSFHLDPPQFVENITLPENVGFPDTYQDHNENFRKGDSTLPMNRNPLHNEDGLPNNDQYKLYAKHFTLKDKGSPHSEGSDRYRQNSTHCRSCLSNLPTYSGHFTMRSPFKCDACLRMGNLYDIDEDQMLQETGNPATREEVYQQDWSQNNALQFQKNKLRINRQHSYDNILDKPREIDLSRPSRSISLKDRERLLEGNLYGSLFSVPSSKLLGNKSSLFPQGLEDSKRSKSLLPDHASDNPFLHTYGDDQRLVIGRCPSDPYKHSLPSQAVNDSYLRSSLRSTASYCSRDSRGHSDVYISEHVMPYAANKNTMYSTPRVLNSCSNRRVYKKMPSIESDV
T1 sequence (Q00960 27-1482, other chains not shown): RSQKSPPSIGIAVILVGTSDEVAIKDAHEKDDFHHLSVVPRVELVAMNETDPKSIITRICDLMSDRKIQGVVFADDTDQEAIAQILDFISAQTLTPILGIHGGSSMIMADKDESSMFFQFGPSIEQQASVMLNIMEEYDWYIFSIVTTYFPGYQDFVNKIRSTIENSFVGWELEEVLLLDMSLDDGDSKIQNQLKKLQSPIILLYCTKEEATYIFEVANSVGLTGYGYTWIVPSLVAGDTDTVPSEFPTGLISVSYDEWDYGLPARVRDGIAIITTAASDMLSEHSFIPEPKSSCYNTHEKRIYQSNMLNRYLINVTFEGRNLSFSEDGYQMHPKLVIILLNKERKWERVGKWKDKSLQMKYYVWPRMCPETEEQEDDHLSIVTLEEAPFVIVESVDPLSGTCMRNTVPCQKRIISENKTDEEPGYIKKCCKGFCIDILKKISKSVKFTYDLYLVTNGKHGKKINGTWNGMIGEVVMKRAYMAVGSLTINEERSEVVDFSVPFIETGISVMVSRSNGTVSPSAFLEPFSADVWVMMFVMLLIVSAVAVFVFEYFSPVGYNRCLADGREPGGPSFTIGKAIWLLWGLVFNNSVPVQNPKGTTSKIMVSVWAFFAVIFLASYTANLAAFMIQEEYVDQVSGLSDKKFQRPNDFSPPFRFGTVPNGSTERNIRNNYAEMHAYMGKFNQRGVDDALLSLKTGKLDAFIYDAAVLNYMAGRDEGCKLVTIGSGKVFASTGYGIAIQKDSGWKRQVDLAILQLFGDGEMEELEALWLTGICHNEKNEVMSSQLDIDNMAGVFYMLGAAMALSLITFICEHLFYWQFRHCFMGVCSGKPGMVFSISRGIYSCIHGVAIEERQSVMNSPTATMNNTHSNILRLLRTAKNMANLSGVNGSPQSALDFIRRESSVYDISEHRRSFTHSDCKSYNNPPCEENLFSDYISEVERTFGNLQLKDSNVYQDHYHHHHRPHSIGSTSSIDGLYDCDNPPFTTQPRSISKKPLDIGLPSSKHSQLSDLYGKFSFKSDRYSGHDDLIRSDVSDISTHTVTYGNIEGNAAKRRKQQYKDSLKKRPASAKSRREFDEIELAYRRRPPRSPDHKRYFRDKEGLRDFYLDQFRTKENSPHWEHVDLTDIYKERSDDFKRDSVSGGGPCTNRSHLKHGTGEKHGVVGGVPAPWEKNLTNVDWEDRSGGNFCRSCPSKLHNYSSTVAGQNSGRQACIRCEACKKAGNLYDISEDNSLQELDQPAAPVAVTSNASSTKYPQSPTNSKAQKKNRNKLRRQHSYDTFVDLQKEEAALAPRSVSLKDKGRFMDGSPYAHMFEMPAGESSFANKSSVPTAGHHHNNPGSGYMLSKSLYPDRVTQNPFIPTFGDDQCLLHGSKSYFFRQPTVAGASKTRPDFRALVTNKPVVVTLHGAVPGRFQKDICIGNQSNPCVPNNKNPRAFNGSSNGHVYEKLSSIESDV

CC(C)[C@@H](CC[C@@H](C)[C@H]1CC[C@H]2[C@@H]3[C@H](O)C[C@H]4C[C@@H](NCCCNCCCCNCCCN)CC[C@]4(C)[C@H]3CC[C@]12C)OS(=O)(=O)O [TRO, trodusquemine]
IC50: 5.1 nM
